Biological target: T1, PI3Kα (Homo sapiens, UniProt P42336)
T1 construct: gene PIK3CA
Test: biochemical

T1 sequence (P42336 whole entry): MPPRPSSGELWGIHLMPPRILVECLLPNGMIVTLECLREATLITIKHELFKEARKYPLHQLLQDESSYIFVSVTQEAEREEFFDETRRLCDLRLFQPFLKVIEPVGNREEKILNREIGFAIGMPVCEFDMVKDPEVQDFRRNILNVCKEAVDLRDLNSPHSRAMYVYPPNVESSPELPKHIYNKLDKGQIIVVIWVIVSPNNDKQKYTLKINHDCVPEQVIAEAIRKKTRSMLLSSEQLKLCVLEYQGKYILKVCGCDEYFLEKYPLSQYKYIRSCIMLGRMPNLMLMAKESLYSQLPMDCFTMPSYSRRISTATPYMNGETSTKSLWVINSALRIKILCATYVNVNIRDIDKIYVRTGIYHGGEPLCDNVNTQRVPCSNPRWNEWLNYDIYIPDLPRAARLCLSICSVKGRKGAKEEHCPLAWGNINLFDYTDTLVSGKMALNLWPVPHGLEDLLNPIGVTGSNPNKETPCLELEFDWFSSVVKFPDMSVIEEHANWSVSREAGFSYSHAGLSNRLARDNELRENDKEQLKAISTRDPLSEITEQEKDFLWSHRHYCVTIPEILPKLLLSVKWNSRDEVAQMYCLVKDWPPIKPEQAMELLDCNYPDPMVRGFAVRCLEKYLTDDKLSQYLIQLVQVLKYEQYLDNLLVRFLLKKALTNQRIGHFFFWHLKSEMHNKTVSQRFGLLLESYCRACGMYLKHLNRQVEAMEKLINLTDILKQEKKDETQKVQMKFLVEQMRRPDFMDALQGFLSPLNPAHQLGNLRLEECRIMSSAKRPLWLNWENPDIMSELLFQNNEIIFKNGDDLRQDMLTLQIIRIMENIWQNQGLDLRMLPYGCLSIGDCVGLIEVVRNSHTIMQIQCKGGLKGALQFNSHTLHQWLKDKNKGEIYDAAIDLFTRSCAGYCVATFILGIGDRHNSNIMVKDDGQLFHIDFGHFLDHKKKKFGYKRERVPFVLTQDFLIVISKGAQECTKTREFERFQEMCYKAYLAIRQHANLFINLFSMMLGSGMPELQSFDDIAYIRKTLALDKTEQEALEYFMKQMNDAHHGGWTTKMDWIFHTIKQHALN
T1 sequence (P27986 2-724, further chain): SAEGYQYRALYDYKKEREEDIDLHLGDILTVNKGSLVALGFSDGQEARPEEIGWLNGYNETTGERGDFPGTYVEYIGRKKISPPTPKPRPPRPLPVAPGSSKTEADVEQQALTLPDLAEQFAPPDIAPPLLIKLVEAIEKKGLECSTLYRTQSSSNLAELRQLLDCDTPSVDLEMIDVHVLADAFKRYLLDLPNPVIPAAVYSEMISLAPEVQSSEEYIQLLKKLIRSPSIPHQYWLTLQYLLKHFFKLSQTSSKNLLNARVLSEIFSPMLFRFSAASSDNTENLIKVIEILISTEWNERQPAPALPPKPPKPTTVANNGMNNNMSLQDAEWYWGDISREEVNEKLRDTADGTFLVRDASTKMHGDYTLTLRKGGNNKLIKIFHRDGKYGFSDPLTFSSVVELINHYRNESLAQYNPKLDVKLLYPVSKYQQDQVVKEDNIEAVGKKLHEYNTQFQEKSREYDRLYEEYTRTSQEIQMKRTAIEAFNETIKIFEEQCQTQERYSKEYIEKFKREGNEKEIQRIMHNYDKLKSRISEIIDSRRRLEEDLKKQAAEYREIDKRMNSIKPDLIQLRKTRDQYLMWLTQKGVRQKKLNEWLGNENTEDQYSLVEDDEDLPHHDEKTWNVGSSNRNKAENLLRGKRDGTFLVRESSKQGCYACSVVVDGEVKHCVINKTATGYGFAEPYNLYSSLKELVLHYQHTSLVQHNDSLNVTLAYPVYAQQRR

Compound: Cc1cccc2c1ccc1c3occ(C)c3c3[nH]c(-c4ccc[n+](CC(=O)c5ccc(Br)cc5)c4)nc3c21 [a4, 1-(2-(4-bromophenyl)-2-oxoethyl)-3-(1,6-dimethyl-12H-furo[2',3':1,2]phenanthro[3,4-d]imidazol-11-yl) pyridin-1-ium bromide]
- IC50: 9.24 ± 0.2 µM

From publication PMC12332164, “Synthesis and biological activity study of tanshinone I-pyridinium salt derivatives” (Natural Products and Bioprospecting, 2025)
